{"source": "patent EP4644401A1", "about": "“ALLULOSE SYRUP WITH IMPROVED PROPERTY” (Samyang Corporation, priority 2022, dated 2024)", "assay": "Solubility analysis of allulose dimer crystals in water", "format": "physicochemical", "settings": "water as solvent, solvent temperature 25°C"}
{"smiles": "O=C(CO)[C@H](O)[C@H](O)[C@H](O)CO", "note": "[allulose]", "values": [{"measurement": "solubility", "value": 340, "unit": "mg/mL"}]}
